Source: ChEMBL document CHEMBL5696441 (Nat Chem Biol, 2011)

What was measured:
[1] = target: Cyclin-dependent kinase 9 (Homo sapiens) (UniProt P50750); assay: Inhibition of CDK9 (unknown origin) assessed as remaining activity at 1 uM by Kinome scan method relative to control
[2] = target: T1, Serine/threonine-protein kinase DCLK2 (Homo sapiens) (UniProt Q8N568); assay: Inhibition of DCAMKL2 (unknown origin) assessed as remaining activity at 1 uM by Kinome scan method relative to control
T1 sequence (whole entry): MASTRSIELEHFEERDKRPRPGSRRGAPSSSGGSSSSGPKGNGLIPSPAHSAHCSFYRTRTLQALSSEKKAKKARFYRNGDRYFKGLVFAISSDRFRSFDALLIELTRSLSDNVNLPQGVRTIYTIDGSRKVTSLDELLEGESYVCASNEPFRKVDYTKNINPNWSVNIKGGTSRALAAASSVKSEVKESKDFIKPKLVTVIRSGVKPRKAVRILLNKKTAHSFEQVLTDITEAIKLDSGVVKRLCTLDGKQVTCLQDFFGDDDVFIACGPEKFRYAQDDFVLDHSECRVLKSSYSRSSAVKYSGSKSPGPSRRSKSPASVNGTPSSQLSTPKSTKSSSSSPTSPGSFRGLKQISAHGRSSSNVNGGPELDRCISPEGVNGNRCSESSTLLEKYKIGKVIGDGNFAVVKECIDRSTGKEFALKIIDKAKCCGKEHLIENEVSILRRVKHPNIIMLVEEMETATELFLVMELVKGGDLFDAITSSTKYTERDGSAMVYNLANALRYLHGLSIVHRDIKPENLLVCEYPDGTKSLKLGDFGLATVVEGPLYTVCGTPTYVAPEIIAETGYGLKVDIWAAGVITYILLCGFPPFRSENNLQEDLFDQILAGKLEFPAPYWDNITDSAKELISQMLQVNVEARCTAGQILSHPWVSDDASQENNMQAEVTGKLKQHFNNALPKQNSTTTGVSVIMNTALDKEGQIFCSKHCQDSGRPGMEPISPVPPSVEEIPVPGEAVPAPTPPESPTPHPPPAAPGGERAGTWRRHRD

[3] = target: T2, Ephrin type-A receptor 3 (Homo sapiens) (UniProt P29320); assay: Inhibition of EPHA3 (unknown origin) assessed as remaining activity at 1 uM by Kinome scan method relative to control
T2 sequence (whole entry): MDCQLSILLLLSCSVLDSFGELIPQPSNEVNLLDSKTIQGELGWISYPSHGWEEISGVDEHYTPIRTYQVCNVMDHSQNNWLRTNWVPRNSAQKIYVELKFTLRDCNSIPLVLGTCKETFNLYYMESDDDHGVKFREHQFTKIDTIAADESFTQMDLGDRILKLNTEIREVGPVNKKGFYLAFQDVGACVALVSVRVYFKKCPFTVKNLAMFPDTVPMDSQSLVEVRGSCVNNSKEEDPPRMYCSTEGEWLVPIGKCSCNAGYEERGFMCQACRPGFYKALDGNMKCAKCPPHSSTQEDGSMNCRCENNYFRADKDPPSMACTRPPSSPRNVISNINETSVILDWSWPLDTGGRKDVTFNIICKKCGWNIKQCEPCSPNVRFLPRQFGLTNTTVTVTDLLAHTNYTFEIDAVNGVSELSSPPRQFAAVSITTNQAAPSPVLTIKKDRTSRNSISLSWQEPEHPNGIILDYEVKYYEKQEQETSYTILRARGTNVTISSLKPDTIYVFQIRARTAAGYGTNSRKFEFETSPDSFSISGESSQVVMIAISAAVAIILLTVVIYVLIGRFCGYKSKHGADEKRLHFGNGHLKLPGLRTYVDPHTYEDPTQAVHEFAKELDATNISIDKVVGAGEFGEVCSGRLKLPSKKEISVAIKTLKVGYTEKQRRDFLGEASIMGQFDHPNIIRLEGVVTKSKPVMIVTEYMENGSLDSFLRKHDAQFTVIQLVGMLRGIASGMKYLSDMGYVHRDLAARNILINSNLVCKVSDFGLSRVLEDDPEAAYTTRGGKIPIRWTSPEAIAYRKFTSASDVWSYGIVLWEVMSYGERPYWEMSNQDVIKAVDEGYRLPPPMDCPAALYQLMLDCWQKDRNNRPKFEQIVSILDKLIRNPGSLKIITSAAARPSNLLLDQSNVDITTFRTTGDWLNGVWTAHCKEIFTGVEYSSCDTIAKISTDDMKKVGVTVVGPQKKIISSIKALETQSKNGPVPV

[4] = target: Ephrin type-B receptor 6 (Homo sapiens) (UniProt O15197); assay: Inhibition of EPHB6 (unknown origin) assessed as remaining activity at 1 uM by Kinome scan method relative to control
[5] = target: Serine/threonine-protein kinase MARK1 (Homo sapiens) (UniProt Q9P0L2); assay: Inhibition of MARK1 (unknown origin) assessed as remaining activity at 1 uM by Kinome scan method relative to control
[6] = target: Cyclin-dependent kinase 14 (Homo sapiens) (UniProt O94921); assay: Inhibition of PFTK1 (unknown origin) assessed as remaining activity at 1 uM by Kinome scan method relative to control
[7] = target: T3, Phosphorylase b kinase gamma catalytic chain, liver/testis isoform (Homo sapiens) (UniProt P15735); assay: Inhibition of PHKG2 (unknown origin) assessed as remaining activity at 1 uM by Kinome scan method relative to control
T3 sequence (whole entry): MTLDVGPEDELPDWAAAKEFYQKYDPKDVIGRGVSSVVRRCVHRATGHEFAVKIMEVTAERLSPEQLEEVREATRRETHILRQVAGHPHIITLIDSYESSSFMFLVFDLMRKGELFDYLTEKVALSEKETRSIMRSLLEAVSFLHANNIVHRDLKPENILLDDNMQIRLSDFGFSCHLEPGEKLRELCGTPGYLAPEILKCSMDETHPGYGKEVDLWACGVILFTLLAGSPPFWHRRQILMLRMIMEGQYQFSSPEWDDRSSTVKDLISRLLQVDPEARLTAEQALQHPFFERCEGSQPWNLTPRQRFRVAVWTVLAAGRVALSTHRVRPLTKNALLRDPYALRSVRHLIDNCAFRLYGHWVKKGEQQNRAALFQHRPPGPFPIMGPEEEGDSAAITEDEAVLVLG

[8] = target: Protein kinase C eta type (Homo sapiens) (UniProt P24723); assay: Inhibition of PRKCH (unknown origin) assessed as remaining activity at 1 uM by Kinome scan method relative to control
[9] = target: TGF-beta receptor type-2 (Homo sapiens) (UniProt P37173); assay: Inhibition of TGFBR2 (unknown origin) assessed as remaining activity at 1 uM by Kinome scan method relative to control
[10] = target: Wee1-like protein kinase (Homo sapiens) (UniProt P30291); assay: Inhibition of WEE1 (unknown origin) assessed as remaining activity at 1 uM by Kinome scan method relative to control
[11] = target: Serine/threonine-protein kinase 25 (Homo sapiens) (UniProt O00506); assay: Inhibition of YSK1 (unknown origin) assessed as remaining activity at 1 uM by Kinome scan method relative to control
Serine/threonine-protein kinase 25 (Homo sapiens), sequence (O00506 whole entry, looked up): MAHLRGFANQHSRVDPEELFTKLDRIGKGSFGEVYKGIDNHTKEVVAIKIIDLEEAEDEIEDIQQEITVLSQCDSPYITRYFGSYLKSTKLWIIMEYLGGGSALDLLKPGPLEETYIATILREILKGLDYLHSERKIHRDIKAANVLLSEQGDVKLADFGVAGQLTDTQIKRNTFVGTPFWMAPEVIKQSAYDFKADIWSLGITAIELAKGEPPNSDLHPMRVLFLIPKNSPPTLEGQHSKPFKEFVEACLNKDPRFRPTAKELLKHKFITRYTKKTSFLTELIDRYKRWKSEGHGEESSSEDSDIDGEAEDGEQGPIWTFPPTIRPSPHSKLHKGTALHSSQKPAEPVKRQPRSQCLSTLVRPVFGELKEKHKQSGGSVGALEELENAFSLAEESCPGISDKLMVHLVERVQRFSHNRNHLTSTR

Wee1-like protein kinase (Homo sapiens), sequence (P30291 whole entry, looked up): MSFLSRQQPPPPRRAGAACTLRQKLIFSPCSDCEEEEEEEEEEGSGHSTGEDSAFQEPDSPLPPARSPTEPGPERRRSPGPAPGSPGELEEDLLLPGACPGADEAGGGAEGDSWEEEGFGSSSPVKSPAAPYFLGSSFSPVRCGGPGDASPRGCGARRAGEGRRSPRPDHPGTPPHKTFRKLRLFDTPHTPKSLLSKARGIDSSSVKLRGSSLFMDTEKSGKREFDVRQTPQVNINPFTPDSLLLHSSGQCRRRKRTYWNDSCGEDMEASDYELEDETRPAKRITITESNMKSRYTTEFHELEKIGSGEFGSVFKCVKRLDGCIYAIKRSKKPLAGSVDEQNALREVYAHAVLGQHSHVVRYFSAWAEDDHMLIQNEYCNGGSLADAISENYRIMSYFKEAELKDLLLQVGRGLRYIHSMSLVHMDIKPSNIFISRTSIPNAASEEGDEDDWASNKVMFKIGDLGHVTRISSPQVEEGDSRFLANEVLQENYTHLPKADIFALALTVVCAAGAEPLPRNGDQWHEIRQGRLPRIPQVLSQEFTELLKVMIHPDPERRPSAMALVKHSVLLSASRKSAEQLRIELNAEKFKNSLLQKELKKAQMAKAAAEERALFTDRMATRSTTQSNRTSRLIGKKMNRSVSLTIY
Protein kinase C eta type (Homo sapiens), sequence (P24723 whole entry): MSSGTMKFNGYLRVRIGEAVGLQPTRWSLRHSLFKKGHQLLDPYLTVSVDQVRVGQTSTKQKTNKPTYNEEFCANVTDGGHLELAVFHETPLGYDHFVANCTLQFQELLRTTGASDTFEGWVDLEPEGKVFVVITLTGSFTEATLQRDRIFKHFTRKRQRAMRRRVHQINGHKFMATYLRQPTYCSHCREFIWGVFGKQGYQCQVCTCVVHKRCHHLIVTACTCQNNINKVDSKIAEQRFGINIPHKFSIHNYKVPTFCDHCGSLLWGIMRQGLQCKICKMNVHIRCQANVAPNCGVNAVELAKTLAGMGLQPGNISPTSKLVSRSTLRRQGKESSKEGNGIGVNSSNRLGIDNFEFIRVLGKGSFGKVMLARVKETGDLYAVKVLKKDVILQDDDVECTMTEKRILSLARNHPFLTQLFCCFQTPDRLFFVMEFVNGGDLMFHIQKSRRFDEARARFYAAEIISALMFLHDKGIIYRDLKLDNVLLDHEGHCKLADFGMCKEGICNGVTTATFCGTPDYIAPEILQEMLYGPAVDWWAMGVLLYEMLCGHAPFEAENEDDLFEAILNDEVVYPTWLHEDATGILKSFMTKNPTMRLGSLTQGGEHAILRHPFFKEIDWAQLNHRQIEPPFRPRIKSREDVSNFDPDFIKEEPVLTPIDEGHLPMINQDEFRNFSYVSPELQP
Serine/threonine-protein kinase MARK1 (Homo sapiens), sequence (Q9P0L2 whole entry, looked up): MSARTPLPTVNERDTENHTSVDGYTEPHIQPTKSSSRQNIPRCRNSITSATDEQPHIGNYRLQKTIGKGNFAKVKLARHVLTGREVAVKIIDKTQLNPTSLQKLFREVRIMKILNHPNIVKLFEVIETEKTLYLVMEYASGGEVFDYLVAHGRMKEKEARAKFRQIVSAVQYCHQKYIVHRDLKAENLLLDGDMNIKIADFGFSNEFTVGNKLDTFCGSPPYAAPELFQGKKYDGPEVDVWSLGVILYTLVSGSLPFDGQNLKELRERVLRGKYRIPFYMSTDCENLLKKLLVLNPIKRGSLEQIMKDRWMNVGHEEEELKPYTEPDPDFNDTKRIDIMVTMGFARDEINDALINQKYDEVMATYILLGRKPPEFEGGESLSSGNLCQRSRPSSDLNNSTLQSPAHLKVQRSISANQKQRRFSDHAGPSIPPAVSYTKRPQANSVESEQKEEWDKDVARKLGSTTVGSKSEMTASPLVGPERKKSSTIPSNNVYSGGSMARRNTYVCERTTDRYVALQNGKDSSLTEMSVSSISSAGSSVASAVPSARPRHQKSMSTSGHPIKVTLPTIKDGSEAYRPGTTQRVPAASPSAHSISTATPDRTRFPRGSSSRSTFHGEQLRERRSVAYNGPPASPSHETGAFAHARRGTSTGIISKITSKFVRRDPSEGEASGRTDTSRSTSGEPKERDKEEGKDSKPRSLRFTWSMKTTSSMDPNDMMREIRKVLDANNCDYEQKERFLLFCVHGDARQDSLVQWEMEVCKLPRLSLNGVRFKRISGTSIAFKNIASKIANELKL
Ephrin type-B receptor 6 (Homo sapiens), sequence (O15197 whole entry): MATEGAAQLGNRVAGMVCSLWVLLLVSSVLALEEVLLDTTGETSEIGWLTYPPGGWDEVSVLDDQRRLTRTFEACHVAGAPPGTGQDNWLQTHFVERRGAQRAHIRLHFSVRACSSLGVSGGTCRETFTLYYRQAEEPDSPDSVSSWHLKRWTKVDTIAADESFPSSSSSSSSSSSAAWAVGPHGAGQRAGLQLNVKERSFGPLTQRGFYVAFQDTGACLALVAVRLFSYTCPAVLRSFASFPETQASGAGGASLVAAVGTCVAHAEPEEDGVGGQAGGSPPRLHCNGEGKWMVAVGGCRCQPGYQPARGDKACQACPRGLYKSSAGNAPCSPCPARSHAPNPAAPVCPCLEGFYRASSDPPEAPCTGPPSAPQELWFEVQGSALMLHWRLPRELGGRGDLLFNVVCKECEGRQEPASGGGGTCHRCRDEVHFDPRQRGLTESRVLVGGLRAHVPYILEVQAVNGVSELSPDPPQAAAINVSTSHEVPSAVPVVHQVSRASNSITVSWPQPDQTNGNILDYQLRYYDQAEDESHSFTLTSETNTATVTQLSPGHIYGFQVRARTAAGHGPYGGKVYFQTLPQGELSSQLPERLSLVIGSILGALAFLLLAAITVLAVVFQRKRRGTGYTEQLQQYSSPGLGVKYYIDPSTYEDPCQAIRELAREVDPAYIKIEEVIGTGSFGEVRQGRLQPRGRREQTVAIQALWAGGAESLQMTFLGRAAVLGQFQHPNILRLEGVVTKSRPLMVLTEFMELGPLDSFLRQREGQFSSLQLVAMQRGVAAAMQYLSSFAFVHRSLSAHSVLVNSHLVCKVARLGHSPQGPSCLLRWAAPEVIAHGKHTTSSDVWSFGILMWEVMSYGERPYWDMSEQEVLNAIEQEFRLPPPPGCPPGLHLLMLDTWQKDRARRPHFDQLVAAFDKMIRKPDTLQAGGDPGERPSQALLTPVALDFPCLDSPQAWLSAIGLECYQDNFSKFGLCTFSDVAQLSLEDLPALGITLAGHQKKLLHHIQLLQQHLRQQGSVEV
Cyclin-dependent kinase 14 (Homo sapiens), sequence (O94921 whole entry, canonical isoform): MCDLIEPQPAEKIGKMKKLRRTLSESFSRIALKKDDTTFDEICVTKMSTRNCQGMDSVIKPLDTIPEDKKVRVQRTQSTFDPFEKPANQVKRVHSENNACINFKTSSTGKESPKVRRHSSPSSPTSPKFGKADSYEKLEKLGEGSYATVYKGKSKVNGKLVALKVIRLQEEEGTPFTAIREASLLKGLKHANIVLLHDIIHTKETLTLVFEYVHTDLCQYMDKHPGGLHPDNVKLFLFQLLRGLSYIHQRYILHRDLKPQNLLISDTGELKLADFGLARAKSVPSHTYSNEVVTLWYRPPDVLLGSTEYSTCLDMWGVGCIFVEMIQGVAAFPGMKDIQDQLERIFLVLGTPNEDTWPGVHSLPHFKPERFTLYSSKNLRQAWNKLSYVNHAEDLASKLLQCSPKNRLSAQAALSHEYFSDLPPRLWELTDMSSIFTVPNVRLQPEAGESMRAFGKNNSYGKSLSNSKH
Cyclin-dependent kinase 9 (Homo sapiens), sequence (P50750 whole entry): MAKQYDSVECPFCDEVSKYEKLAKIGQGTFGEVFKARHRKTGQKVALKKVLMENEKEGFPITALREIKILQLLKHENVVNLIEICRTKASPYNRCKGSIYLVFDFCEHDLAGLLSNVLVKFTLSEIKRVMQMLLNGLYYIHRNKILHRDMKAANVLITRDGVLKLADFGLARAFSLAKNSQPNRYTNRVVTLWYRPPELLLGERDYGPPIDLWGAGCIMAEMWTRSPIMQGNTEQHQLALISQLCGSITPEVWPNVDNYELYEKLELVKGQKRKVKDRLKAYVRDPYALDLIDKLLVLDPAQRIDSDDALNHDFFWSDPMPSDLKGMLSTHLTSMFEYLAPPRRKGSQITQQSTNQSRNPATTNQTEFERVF
TGF-beta receptor type-2 (Homo sapiens), sequence (P37173 whole entry): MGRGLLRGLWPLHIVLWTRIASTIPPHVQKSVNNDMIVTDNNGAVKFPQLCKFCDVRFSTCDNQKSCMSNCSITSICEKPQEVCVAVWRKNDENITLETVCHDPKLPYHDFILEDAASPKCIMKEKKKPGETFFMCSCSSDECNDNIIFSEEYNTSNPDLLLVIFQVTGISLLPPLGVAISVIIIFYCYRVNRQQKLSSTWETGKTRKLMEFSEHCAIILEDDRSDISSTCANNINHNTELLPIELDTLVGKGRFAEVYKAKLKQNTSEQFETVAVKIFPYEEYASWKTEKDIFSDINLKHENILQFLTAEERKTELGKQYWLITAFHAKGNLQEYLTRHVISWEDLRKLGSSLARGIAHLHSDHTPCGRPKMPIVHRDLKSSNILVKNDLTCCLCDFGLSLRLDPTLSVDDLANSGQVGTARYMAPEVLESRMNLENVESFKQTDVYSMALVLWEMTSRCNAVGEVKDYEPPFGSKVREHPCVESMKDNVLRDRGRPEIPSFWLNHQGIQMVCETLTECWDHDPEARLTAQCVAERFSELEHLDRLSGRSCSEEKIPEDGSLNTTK

| SMILES | Activity [1] [%] | Activity [2] [%] | Activity [3] [%] | Activity [4] [%] | Activity [5] [%] | Activity [6] [%] | Activity [7] [%] | Activity [8] [%] | Activity [9] [%] | Activity [10] [%] | Activity [11] [%] |
| --- | --- | --- | --- | --- | --- | --- | --- | --- | --- | --- | --- |
| Nc1ccccc1Nc1ccc2c(c1)CCc1ccccc1C2=O | 93 | 98 | 83 | 99 | 88 | 94 | 98 | 90 | 93 | 98 | 92 |
| O=C1c2ccc(Nc3ccc(F)cc3F)cc2CCc2ccc(OC[C@H](O)CO)cc21 [Skepinone-L] | 100 | 88 | 94 | 91 | 93 | 86 | 96 | 90 | 100 | 100 | 100 |
